Where two headings read alike, the source gives them in different places.
Tests used:
[1] = tested on: Cord blood-derived CD34+ cells; test: Proliferation of typical CD34+ cell culture with or without TGF-β inhibitor and PPAR-α agonist (cumulative cell number); type: cell-based, human
Procedure: HSCs were cultured for one to three days in a medium containing StemSpan SFEM (Stemcell Technologies) with 6 IU/ml EPO (Calbiochem, San Diego, CA), 100 ng/ml SCF (R&D Systems, Minneapolis, MN), and 10 ng/ml IL-3 (R&D Systems). Then, 5×10^4 cells were transduced with the virus concentrated in the above culture medium and polybrenc (8 μg/ml, Sigma). The multiplicity of infection (MOI) of the virus during transduction was calculated to be 15 to 30. 24 hours after the transduction, the medium was replaced with a fresh virus-free medium, and from day 5 of culture, the StemSpan SFEM medium was supplemented with 3 IU/ml EPO, 50 ng/ml SCF, 10^−6 M dexamethasone, and 250 nM TGF-β inhibitor (LY2157299, PeproTech, Rocky Hill, NJ), 10 μM PPAR-α agonist (GW7647, Sigma), and 1 μg/ml doxycycline (Takara Bio Inc.) to induce selective expression of HPV16 E6/E7 in the transduced cells. The efficiency of transduction was confirmed on day 7 of culture through GFP fluorescence expression of GFP-transduced cells, and the cells were maintained at a concentration of 2 to 3×10^5 cells/ml while replacing the medium with a fresh medium every two to three days. In addition, to obtain the cell proliferation and survival rate, the cells were stained with trypan blue (Gibco) and counted. […]

[2] = tested on: Cord blood-derived CD34+ cells; test: Flow cytometry of CD71 marker: proportion of immature erythroblasts; type: cell-based, human; conditions: day 17, flow cytometry
Procedure: The following antibodies were used: glycophorin A (GPA; CD235a)-FITC (Life Technologies Inc., Gaithersburg, MD); and CD71-PE (BioLegend Inc., San Diego, CA). The cells were washed with 0.1% BSA, then antibodies were added and stained for 15 minutes at 4° C., while blocking light. In addition, a fluorescence microscope (Nikon Eclipse Ti; Nikon Corporation) was used to confirm the GFP fluorescence expressed in the cells cultured in the plate.
There is an TGF-β inhibitor (LY2157299) which is known to be effective in the maintenance and proliferation of immature erythroblasts, and a PPAR-α agonist (GW7647) that may have a synergistic effect on the proliferation of immature erythroblasts with glucocorticoid was explored, and an experiment was performed on the effects of the two substances. First, the two substances were added to a typical CD34+ cell culture under different conditions and cultured. In terms of cell proliferation, the cells proliferated the most by 1,500-fold by day 15 of culture when the culture was performed by adding the two substances together, and the cells proliferated by 1,000-fold by day 13 of culture in the experimental group where only the TGF-β inhibitor was added. […]

Description for E6/E7-transduced cells: Some of the cells in culture were spread on a slide using a cell centrifuge (Cellspin; Hanil Science Industrial Co. Ltd., Incheon, Korea) and stained with a Wright-Giemsa stain (Sigma), and the state, shape, and maturity of the cells were confirmed in a blind manner. Cell photos were taken using an optical microscope (Nikon Eclipse TE2000-U; Nikon Corporation).
In addition, the immature erythroblast marker CD71 was attached to the proliferating cells, and the proportion of immature erythroblasts was confirmed through flow cytometry.

SMILES	proliferation rate ([1]; day not given)	proportion of immature erythroblasts (CD71) [2]	immature erythroblasts, % of all cells (E6/E7-transduced cells; day 28 of culture)	immature erythroblasts, % of all cells (E6/E7-transduced cells; day 33 of culture)	cell proliferation ([1]; by day 13 of culture)
CC(C)(Sc1ccc(CCN(CCCCC2CCCCC2)C(=O)NC2CCCCC2)cc1)C(=O)O [PPAR-α agonist, GW7647]	500 fold	53%	–	–	–
Cc1cccc(-c2nn3c(c2-c2ccnc4ccc(C(N)=O)cc24)CCC3)n1 [TGF-β inhibitor, LY2157299]	–	–	26.7%	15.2%	1,000 fold

Source: patent publication US20250027045A1, “ESTABLISHMENT OF ERYTHROID PRECURSOR CELL LINE CAPABLE OF CONDITIONAL MATURATION USING GENE OVEREXPRESSION” (IUCF-HYU (INDUSTRY-UNIVERSITY COOPERATION FOUNDATION …, priority 2021, published 2025)
